29 compounds from BindingDB's records for patent US20230312522 (Sage Therapeutics, 2023) can be followed below.

pIC50: −log10 of the molar value.

Chain of Cholesterol 24-hydroxylase (Q9Y6A2 whole entry): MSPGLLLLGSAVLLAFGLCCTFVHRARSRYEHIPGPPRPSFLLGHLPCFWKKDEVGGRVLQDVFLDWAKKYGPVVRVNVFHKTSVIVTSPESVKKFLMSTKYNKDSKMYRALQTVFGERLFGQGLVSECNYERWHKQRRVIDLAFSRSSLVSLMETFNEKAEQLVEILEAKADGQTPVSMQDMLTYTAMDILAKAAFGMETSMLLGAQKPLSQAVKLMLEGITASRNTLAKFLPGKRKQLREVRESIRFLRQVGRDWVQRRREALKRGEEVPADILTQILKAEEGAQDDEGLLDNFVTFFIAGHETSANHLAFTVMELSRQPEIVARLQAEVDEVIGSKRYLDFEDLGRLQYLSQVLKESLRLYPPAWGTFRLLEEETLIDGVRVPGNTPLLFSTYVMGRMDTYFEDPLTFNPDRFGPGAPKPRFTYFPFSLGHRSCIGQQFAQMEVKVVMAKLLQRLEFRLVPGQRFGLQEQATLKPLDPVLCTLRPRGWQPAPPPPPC

For the experiment, the target named is Cholesterol 24-hydroxylase (Homo sapiens, UniProt Q9Y6A2). The experiment can be described thus: CYP46A1 Enzyme Assay. The procedure:
Briefly, in a 384-well plate format, 10 uL per well of an enzyme-substrate mixture of CYP46A1 (5 uM final concentration) and Testosterone ([…]) were dispensed to wells containing test compound. For CYP46A1 titration, 5 uL per well of serially diluted CYP46A1 (concentrations including 10 uM, 5 uM, and 2.5 uM) and Testosterone ([…]) were dispensed. For Testosterone titration, 5 uL per well of serially diluted Testosterone (concentrations including 10 uM, 5 uM, and 2.5 uM) and CYP46A1 (concentration of 5 uM) were dispensed. The plates were centrifuged at 1000 rpm for 30 seconds, and then sealed and incubated at 37 C. for 30 minutes. The plate was removed from the incubator, and then 10 uL per well of NADPH-generating system were dispensed to initiate the reaction. The plates were incubated at 37 C. for 15 minutes, added with 80 uL per well of 100% methanol consisting 1 ng/ml diclofenac as internal standard, and then transferred for HPLC-MS.
`O=C(c1cccnc1-c1ccncn1)N1CCC(F)(c2ccccc2)CC1` [US20230312522, Compound 8]: the pIC50 is < 6.00. On to `O=C(c1cccnc1-c1ccncn1)N1CCC(F)([C@H](O)c2ccc(C(F)(F)F)cc2)CC1` [US20230312522, Compound 13], for which the pIC50 is > 7.00. `O=C(c1cccnc1-c1ccncn1)N1CCC(F)([C@@H](O)c2ccc(C(F)(F)F)cc2)CC1` [US20230312522, Compound 14]: the pIC50 was > 7.00. With `O=C(c1cccnc1-c1ccncn1)N1CCC(F)(Cc2ccc(Cl)cn2)CC1` [US20230312522, Compound 18], the pIC50 was > 7.00.

As to `O=C(c1cccnc1-c1ccncn1)N1CCC(F)(Cc2ccc(F)cc2F)CC1` [US20230312522, Compound 19], the negative-log IC50 (pIC50) is > 7.00. For `O=C(c1cccnc1-c1ccncn1)N1CCC(F)(Cc2cc(F)cc(F)c2)CC1` [US20230312522, Compound 20], the pIC50 was > 7.00. As for `O=C(c1cccnc1-c1ccncn1)N1CCC(F)(Cc2ccc(C(F)(F)F)cn2)CC1` [US20230312522, Compound 22], the pIC50 was > 7.00.

As to `O=C(c1cccnc1-c1ccncn1)N1CCC(F)(Cc2ccc(C(F)(F)F)nc2)CC1` [US20230312522, Compound 23], the pIC50 is > 7.00. On to `O=C(c1cccnc1-c1ccncn1)N1CCC(F)(Cc2cccc(C(F)(F)F)n2)CC1` [US20230312522, Compound 24], for which the negative logarithm of the IC50 (pIC50) is > 7.00. In the case of `O=C(c1cccnc1-c1ccncn1)N1CCC(F)(Cc2c(F)cc(F)cc2F)CC1` [US20230312522, Compound 26], the pIC50 is > 7.00.

`O=C(c1cccnc1-c1ccncn1)N1CCC(F)(Cc2ccc(C(F)(F)F)cc2F)CC1` [US20230312522, Compound 28]: the pIC50 is > 7.00. Next, `O=C(c1cccnc1-c1ccncn1)N1CCC(F)(Cc2ccc(Cl)cc2)CC1` [US20230312522, Compound 29]: > 7.00. As to `C[C@H](c1cc(F)cc(F)c1)C1(F)CCN(C(=O)c2cccnc2-c2ccncn2)CC1` [US20230312522, Compound 31], the negative-log IC50 (pIC50) was > 7.00. As to `C[C@@H](c1cc(F)cc(F)c1)C1(F)CCN(C(=O)c2cccnc2-c2ccncn2)CC1` [US20230312522, Compound 32], the pIC50 is > 7.00. For the compound `C[C@H](c1ccc(C(F)(F)F)cc1)C1(F)CCN(C(=O)c2cccnc2-c2ccncn2)CC1` [US20230312522, Compound 33], the pIC50 is > 7.00. For the compound `C[C@@H](c1ccc(C(F)(F)F)cc1)C1(F)CCN(C(=O)c2cccnc2-c2ccncn2)CC1` [US20230312522, Compound 34], the negative logarithm of the IC50 (pIC50) is > 7.00. On to `O=C(c1cccnc1-c1ccncc1)N1CCC(F)(Cc2ccc(C(F)(F)F)nc2)CC1` [US20230312522, Compound 35], for which the pIC50 was > 7.00.

Regarding `O=C(c1cccnc1-c1ccncc1)N1CCC(F)(Cc2ccc(Cl)cn2)CC1` [US20230312522, Compound 38], the pIC50 is > 7.00. The same measure for `O=C(c1cccnc1-c1ccncn1)N1CCC(F)(Cc2cc(C(F)(F)F)c(Cl)cn2)CC1` [US20230312522, Compound 39]: > 7.00; for `Cc1ccc(CC2(F)CCN(C(=O)c3cccnc3-c3ccncc3)CC2)nc1` [US20230312522, Compound 43]: > 7.00. `O=C(c1cccnc1-c1ccncc1)N1CCC(F)(Cc2cnccn2)CC1` [US20230312522, Compound 45]: the pIC50 is < 6.00. Next, `O=C(c1cccnc1-c1ccncn1)N1CCC(F)(Cc2ccc(Cl)nc2)CC1` [US20230312522, Compound 46]: > 7.00; `O=C(c1cccnc1-c1ccncc1)N1CCC(F)(Cc2ccc(Cl)nc2)CC1` [US20230312522, Compound 47]: > 7.00; `O=C(c1cccnc1-c1ccncn1)N1CCC(F)(Cc2ccc(CF)nc2)CC1` [US20230312522, Compound 51]: > 7.00. On to `Cc1cnc(CC2(F)CCN(C(=O)c3cccnc3-c3ccncc3)CC2)cn1` [US20230312522, Compound 52], for which the negative-log IC50 (pIC50) is > 7.00. Regarding `O=C(c1cccnc1-c1ccncc1)N1CCC(F)(Cc2ccc(CF)nc2)CC1` [US20230312522, Compound 54], the pIC50 is > 7.00.

In the case of `O=C(c1cccnc1-c1ccncc1)N1CCC(F)(Cc2ccc(C(F)F)nc2)CC1` [US20230312522, Compound 55], the pIC50 is > 7.00. The same measure for `O=C(c1cccnc1-c1ccncn1)N1CCC(F)(Cc2ncc(C(F)(F)F)cn2)CC1` [US20230312522, Compound 56]: < 6.00; for `Cc1ccc(CC2(F)CCN(C(=O)c3cccnc3-c3ccncc3)CC2)cn1` [US20230312522, Compound 57]: > 7.00.
